{
  "source": "patent US20260335448A1",
  "about": "(priority 2022, published 2026)",
  "origin": "cited, not measured here",
  "key": {"West Nile virus": {"test_system": "West Nile virus", "conditions": "in vitro"}, "glioblastoma": {"test_system": "glioblastoma", "conditions": "in vitro"}, "[1]": {"test_system": "Venezuelan equine encephalitis virus"}, "pseudorabies virus [2]": {"test_system": "pseudorabies virus", "conditions": "in vivo"}, "gastric cancer": {"test_system": "gastric cancer", "conditions": "in vitro"}, "breast cancer": {"test_system": "breast cancer", "conditions": "in vitro"}, "[3]": {"test_system": "SARS-COV-2-infected Vero/hSLAM cells", "conditions": "in vitro, at high concentrations"}, "melanoma": {"test_system": "melanoma", "conditions": "in vitro"}, "ovarian cancer": {"test_system": "ovarian cancer", "conditions": "in vitro"}, "dengue virus": {"test_system": "dengue virus", "conditions": "in vitro"}, "colon cancer": {"test_system": "colon cancer", "conditions": "in vitro"}, "pseudorabies virus [4]": {"test_system": "pseudorabies virus"}, "leukemia": {"test_system": "leukemia", "conditions": "in vitro"}},
  "note": "Where two headings read alike, the source gives them in different places.",
  "data": [
    {"substance": "ivermectin", "values": [
      {"measurement": "anti-viral activity", "setting": "West Nile virus", "value": "activity in vitro"},
      {"measurement": "anti-tumor activity", "setting": "glioblastoma", "value": "activity in vitro"},
      {"measurement": "anti-viral activity", "setting": "[1]", "value": "activity in vitro"},
      {"measurement": "anti-viral activity", "setting": "pseudorabies virus [2]", "value": "activity in vitro and in vivo"},
      {"measurement": "anti-tumor activity", "setting": "gastric cancer", "value": "activity in vitro"},
      {"measurement": "anti-tumor activity", "setting": "breast cancer", "value": "activity in vitro"},
      {"measurement": "anti-viral activity", "setting": "[3]", "value": "activity in vitro"},
      {"measurement": "anti-tumor activity", "setting": "melanoma", "value": "activity in vitro"},
      {"measurement": "anti-tumor activity", "setting": "ovarian cancer", "value": "activity in vitro"},
      {"measurement": "anti-viral activity", "setting": "dengue virus", "value": "activity in vitro"},
      {"measurement": "anti-tumor activity", "setting": "colon cancer", "value": "activity in vitro"},
      {"measurement": "anti-viral activity", "setting": "pseudorabies virus [4]", "value": "activity in vitro"},
      {"measurement": "anti-tumor activity", "setting": "leukemia", "value": "activity in vitro"}
    ]}
  ]
}
